Test results reported in article PMC11035424 (2024).

What was measured:
[1] = system: c-myc (DNA, G4) TGAGGGTGGGTAGGGTGGGTAA; experiment: ITC; details: K+ (50 mM potassium phosphate); 50 mM KH2PO4-K2HPO4 pH 7.0, 25 °C; abstract misprints exponent as 10^-6
[2] = system: c-kit (DNA, G4) AGGGAGGGCGCTGGGAGGAGGG; experiment: ITC; details: K+ (50 mM potassium phosphate); 50 mM KH2PO4-K2HPO4 pH 7.0, 25 °C
[3] = system: VEGF (DNA, G4) CGGGGCGGGCCTTGGGCGGGGT; experiment: ITC; details: K+ (50 mM potassium phosphate); 50 mM KH2PO4-K2HPO4 pH 7.0, 25 °C
[4] = system: TA-core (DNA, G4) TAGGGTTAGGGTTAGGGTTAGGG; experiment: ITC; details: K+ (50 mM potassium phosphate); 50 mM KH2PO4-K2HPO4 pH 7.0, 25 °C
[5] = system: c-myc (DNA, G4) TGAGGGTGGGTAGGGTGGGTAA; experiment: CD melting at 265 nm; details: K+ (50 mM potassium phosphate); 50 mM potassium phosphate pH 7.0; 1.5 µM DNA, 3.0 µM compound; printed ≧; printed Tms differ by 6.6
[6] = system: VEGF (DNA, G4) CGGGGCGGGCCTTGGGCGGGGT; experiment: CD melting at 265 nm; details: K+ (50 mM potassium phosphate); 50 mM potassium phosphate pH 7.0; 1.5 µM DNA, 3.0 µM compound; printed ≧
[7] = system: TA-core (DNA, G4) TAGGGTTAGGGTTAGGGTTAGGG; experiment: CD melting at 265 nm; details: K+ (50 mM potassium phosphate); 50 mM potassium phosphate pH 7.0; 1.5 µM DNA, 3.0 µM compound
[8] = system: dsoligo (12-ss(-)/12-ss(+)) (DNA, duplex) GCGAAACCTCCC/GGGAGGTTTCGC; experiment: UV melting at 260 nm; details: K+ (50 mM potassium phosphate); 50 mM potassium phosphate pH 7.0; 1.5 µM DNA, 3.0 µM compound
[9] = system: c-myc (DNA, G4) TGAGGGTGGGTAGGGTGGGTAA; experiment: absorption titration (383 nm, Stootman fit); details: K+ (50 mM potassium phosphate); 50 mM KH2PO4-K2HPO4 pH 7.0; 8 µM compound
[10] = system: c-myc120 (DNA, G4) GAGGTATTTCGGGAGGTTTCGCCCCACGCCCTCTGCTTTGGGAACCCGGGAGGGGCGCTTATGGTGAGGGTGGGGAGGGTGGGGAAGGGGGAGGAGAGCGGTATTCGTGGTGTTCGGAGT; experiment: pulldown on streptavidin magnetic beads, qPCR; details: K+ (50 mM potassium phosphate); 50 mM potassium phosphate pH 7.0, room temperature; immobilised compound; more than 50% recovery
[11] = system: c-myc-mut95 (DNA, single strand) GAGGTATTTCGGGAGGTTTCGCCACCTTCTTCACTCTCTTCACTCTCTTCATAAGCGCCCCTCCCGGGTTCCCCGGTATTCGTGGTGTTCGGAGT; experiment: pulldown on streptavidin magnetic beads, qPCR; details: K+ (50 mM potassium phosphate); 50 mM potassium phosphate pH 7.0, room temperature; immobilised compound; 2 fmol DNA
[12] = system: c-myc (DNA, G4) TGAGGGTGGGTAGGGTGGGTAA; experiment: pulldown on streptavidin magnetic beads, gel electrophoresis; details: K+ (50 mM potassium phosphate); 5 µM compound, 5 µM DNA, pH 7.0, room temperature
[13] = system: dsoligo (12-ss(-)/12-ss(+)) (DNA, duplex) GCGAAACCTCCC/GGGAGGTTTCGC; experiment: as above; details: K+ (50 mM potassium phosphate); 5 µM compound, 5 µM DNA, pH 7.0, room temperature

- K [1]: 3.9e+06 M⁻¹
- K [2]: 200000 M⁻¹
- K [3]: 820000 M⁻¹
- K [4]: 2.1e+06 M⁻¹
- ΔTm [5]: > 5.4 °C
- ΔTm [6]: > 7.0 °C
- ΔTm [7]: 4.8 °C
- ΔTm [8]: 0.1 °C
- K [9]: 8.9e+06 M⁻¹
- binding [10]: yes
- binding [11]: no
- binding [12]: yes
- binding [13]: no
SMILES: CN1CCCNC(=O)CC[C@H](NC(=O)CCOCCOCCOCCOCCNC(=O)CCCC[C@@H]2SC[C@@H]3NC(=O)N[C@@H]32)C(=O)NCCCN(C)CCCN2C(=O)c3ccc4c5c(ccc(c35)C2=O)C(=O)N(CCC1)C4=O
